{"source": "ChEMBL document CHEMBL1201862", "about": "“PubChem BioAssay data set” (2004)", "key": {"[1]": {"assay": "blockers of HIV-1 envelope-mediated cell-cell fusion – cherry-pick, dose response (AID 652057)", "assay_type": "functional, cell-based"}, "SN12K1": {"test_system": "SN12K1", "assay": "cells", "assay_type": "functional", "settings": "Homo sapiens"}, "P388": {"test_system": "P388", "assay": "cells", "assay_type": "functional", "settings": "Mus musculus"}, "P388/ADR": {"test_system": "P388/ADR", "assay": "cells", "assay_type": "functional", "settings": "Mus musculus"}, "Genome polyprotein": {"target": "Genome polyprotein (dengue virus type 2, UniProt P29990)", "sequence (P29990 2492-3391 limits assumed)": "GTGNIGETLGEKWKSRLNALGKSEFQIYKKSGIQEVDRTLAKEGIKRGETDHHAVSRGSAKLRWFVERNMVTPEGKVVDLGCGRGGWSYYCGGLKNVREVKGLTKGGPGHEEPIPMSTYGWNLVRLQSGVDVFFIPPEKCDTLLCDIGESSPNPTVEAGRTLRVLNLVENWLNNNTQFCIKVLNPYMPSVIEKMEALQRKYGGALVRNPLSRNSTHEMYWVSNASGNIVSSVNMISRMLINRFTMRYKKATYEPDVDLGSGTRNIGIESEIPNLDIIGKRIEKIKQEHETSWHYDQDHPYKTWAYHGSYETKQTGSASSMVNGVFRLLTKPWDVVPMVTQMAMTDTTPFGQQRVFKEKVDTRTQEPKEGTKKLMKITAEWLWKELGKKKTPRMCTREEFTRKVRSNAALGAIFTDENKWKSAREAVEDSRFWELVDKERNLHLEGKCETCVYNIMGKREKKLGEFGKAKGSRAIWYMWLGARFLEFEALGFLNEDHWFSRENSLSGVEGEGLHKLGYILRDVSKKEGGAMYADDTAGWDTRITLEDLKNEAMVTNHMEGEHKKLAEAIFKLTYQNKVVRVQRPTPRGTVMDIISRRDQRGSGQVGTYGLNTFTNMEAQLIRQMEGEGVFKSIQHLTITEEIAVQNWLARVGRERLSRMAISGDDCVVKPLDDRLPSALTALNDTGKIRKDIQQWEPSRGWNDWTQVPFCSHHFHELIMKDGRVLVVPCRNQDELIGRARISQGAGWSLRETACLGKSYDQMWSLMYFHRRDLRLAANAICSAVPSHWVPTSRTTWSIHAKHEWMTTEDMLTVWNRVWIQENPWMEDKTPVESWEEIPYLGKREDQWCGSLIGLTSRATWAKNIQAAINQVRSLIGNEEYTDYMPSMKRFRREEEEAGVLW", "assay": "flavivirus cap methylation enzyme inhibition – biochemical, confirmation dose response, primary screen (AID 588689)", "assay_type": "functional"}, "[2]": {"target": "T1, Calpain-2 catalytic subunit (Sus scrofa, UniProt P43367)", "T1 sequence (P43367 whole entry)": "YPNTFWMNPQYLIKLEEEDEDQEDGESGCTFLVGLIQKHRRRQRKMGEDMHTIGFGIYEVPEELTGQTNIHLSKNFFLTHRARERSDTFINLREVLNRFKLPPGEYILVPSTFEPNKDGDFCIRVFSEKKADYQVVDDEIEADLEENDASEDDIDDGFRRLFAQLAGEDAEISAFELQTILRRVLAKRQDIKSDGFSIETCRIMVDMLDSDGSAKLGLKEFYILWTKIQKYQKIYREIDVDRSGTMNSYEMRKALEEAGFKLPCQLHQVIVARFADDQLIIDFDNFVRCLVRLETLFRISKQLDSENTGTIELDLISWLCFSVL", "assay": "m-calpain protease blockers, concentration series – biochemical, fluorogenic peptide substrate, dose response (AID 1420)", "assay_type": "functional"}, "[3]": {"target": "FAD-linked sulfhydryl oxidase ALR (Homo sapiens, UniProt P55789)", "sequence (P55789 whole entry)": "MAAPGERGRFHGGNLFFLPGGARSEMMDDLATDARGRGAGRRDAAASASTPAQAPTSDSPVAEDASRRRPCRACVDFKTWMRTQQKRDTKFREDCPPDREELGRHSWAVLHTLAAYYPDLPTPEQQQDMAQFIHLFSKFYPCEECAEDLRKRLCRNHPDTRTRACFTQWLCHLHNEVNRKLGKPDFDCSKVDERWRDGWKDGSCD", "assay": "ALR-catalysed DTT oxidation blockers – biochemical, H2O2 detection, luminescence, cherry-pick, dose response (AID 493248)"}, "Leucine aminopeptidase": {"target": "T2, Leucine aminopeptidase (Plasmodium falciparum 3D7, UniProt Q8IL11)", "T2 sequence (Q8IL11 whole entry)": "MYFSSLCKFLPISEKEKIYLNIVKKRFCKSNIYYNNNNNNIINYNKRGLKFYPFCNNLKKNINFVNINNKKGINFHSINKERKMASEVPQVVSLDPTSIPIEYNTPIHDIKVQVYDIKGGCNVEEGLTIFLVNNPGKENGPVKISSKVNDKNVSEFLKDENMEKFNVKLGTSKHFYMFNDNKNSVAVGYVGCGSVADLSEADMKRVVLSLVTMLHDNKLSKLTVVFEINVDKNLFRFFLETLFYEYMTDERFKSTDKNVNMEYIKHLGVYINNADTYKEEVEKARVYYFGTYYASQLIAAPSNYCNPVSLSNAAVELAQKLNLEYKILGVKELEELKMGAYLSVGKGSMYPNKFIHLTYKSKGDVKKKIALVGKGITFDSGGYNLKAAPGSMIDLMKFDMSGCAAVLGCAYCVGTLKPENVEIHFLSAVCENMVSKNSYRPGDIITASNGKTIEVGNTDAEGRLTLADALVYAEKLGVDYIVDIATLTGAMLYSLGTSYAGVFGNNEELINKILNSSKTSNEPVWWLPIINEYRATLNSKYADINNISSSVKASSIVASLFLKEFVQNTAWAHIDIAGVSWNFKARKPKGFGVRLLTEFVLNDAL", "assay": "P. falciparum M17LAP inhibitors, primary screen, biochemical, fluorogenic H-Leu-NHMec substrate, 1536-well (AID 1619)", "assay_type": "functional"}, "[4]": {"target": "T3, Polyadenylate-binding protein 1 (Homo sapiens, UniProt P11940)", "T3 sequence (P11940 whole entry, the tested form may be a part)": "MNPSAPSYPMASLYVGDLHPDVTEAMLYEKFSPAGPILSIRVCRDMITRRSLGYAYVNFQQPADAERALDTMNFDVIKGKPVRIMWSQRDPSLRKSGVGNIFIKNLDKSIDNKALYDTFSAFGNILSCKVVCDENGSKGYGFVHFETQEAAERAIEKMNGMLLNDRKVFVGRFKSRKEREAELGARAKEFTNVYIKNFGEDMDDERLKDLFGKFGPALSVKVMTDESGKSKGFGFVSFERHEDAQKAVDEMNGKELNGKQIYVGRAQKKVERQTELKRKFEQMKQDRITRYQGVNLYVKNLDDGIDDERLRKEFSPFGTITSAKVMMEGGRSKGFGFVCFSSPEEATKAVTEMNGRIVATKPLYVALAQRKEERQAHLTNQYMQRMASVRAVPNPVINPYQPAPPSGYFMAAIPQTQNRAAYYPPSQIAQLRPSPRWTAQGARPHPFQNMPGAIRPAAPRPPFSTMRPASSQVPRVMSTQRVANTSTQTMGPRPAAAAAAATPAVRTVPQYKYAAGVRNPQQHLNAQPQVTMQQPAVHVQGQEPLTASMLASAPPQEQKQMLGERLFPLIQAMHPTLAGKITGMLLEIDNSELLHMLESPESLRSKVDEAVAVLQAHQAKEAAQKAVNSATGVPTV", "assay": "MLLE domain peptide-binding blockers, IC50 – biochemical, fluorescence polarization, FITC-PAM2 peptide, dose response (AID 602259)", "assay_type": "functional", "settings": "read-out: IC50_Mean"}, "[5]": {"target": "T3, Polyadenylate-binding protein 1", "assay": "MLLE binding blockers, Cy5 peptide tracer – biochemical, fluorescence polarization, Cy5-PAM2 peptide, secondary, miRNA deadenylation inhibitor project, dose response (AID 602260)", "assay_type": "functional", "settings": "read-out: IC50_Mean"}, "[6]": {"assay": "microbe, parasite or virus in culture", "assay_type": "functional", "settings": "Mycobacterium tuberculosis"}, "cells": {"assay": "cells", "assay_type": "functional"}, "H9c2": {"test_system": "H9c2", "assay": "cells", "assay_type": "functional, cell-based", "settings": "Rattus norvegicus, H9c2, Myocardium"}, "[7]": {"test_system": "Streptococcus sp. 'group A'", "assay": "Streptococcus pyogenes SK(-)GAS viability under kanamycin – luminescence, BacTiterGlo, confirmation, counter-screen for streptokinase expression inhibitor project, dose response (AID 1900)", "assay_type": "functional, organism-based"}, "Streptococcus": {"test_system": "Streptococcus", "assay": "GAS UMAA2166 growth inhibition – luminescence, BacTiterGlo, counter-screen for streptokinase expression inhibitor project, dose response (AID 1915);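 further: potency for reduction of bacterial viability or growth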", "assay_type": "functional, organism-based"}, "[8]": {"assay": "viability of uninfected HEp-2 cells – cell-based, HTS, cytotoxicity control for RSV inhibitor project, dose response (AID 2410)", "assay_type": "functional", "settings": "human respiratory syncytial virus"}, "[9]": {"assay": "non-specific 3'UTR reporter inhibition in Clone20-Shn3RL – cell-based, Renilla luciferase, cherry-picked, counter-screen for Shn3 inhibitor project, dose response (AID 624133)", "assay_type": "functional"}, "[10]": {"assay": "loss of viability in HepG2 cells – cell-based, CellTiter-Glo, cherry-picked, cytotoxicity control for Shn3 inhibitor project, dose response (AID 624134)", "assay_type": "functional"}, "INS1": {"test_system": "INS1", "assay": "INS-1E survival protection against cytokine death – cell-based, luminescence, retest, dose response (AID 449756);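 further: cell death triggered by IL-1 beta plus TNF-alpha plus IFN-gamma mixture; protective hits raise ATP signal compared with cytokine alone wells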", "assay_type": "functional", "settings": "Rattus norvegicus"}, "[11]": {"assay": "reduction of Shn3 3'UTR-driven luciferase in osteoblasts – cell-based, Clone20 osteoblasts, firefly luciferase, cherry-picked, dose response (AID 624132)", "assay_type": "functional"}, "Caspase-6": {"target": "T4, Caspase-6 (Homo sapiens, UniProt P55212)", "T4 sequence (P55212 whole entry)": "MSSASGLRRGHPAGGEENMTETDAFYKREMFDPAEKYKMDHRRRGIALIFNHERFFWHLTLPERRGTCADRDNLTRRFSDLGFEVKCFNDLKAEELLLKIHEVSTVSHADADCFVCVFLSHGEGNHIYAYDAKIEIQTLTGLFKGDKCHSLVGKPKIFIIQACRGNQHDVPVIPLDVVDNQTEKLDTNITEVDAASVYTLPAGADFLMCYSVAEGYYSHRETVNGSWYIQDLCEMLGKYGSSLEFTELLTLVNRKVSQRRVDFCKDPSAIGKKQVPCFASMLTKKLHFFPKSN", "assay": "inhibition of CASP6 peptide cleavage – biochemical, VEID-R110 fluorescence, cherry-pick, dose response (AID 720632)"}, "Cytochrome P450 3A4": {"target": "Cytochrome P450 3A4 (Homo sapiens, UniProt P08684)", "sequence (P08684 whole entry)": "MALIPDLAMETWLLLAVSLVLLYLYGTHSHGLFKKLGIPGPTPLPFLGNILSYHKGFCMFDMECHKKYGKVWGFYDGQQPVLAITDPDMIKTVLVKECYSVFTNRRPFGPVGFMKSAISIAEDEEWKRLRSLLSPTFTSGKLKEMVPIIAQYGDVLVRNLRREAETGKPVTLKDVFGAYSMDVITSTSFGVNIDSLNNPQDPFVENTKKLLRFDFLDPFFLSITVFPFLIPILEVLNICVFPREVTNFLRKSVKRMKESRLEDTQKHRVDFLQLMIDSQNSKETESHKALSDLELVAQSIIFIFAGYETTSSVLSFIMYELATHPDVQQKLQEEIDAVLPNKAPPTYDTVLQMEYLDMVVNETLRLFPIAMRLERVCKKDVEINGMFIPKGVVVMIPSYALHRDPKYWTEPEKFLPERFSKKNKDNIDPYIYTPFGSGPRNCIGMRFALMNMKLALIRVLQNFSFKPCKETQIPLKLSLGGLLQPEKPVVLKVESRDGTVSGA"}, "Cytochrome P450 2C9": {"target": "Cytochrome P450 2C9 (Homo sapiens, UniProt P11712)", "sequence (P11712 whole entry)": "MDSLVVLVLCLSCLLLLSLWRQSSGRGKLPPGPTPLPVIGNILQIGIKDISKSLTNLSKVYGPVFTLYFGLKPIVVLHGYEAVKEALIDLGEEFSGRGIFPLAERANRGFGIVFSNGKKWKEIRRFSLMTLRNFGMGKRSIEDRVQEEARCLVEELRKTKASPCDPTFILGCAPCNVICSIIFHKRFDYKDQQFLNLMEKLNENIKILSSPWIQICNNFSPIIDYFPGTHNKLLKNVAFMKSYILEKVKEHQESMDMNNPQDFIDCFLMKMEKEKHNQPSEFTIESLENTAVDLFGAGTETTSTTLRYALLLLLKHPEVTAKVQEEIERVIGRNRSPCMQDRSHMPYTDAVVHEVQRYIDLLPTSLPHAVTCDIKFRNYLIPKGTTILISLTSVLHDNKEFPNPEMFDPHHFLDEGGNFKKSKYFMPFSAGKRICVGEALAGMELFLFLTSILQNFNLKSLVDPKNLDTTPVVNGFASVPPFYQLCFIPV"}}, "note": "Calls of active or inactive are those of the source.", "data": [{"smiles": "C[C@@H]1CN([C@@H](C)CO)C(=O)Cc2cc(NC(=O)c3ccncc3)ccc2O[C@H]1CN(C)Cc1ccc(Cl)c(Cl)c1", "values": [{"measurement": "AC50", "setting": "[1]", "result": "30.4 µM (active)"}]}, {"smiles": "C=C1CC(OC)(C(O)C(=O)N[C@H]2OCO[C@H]3C2O[C@H](C[C@@H](COC)OC)C(C)(C)C3OC)O[C@H](C)[C@@H]1C", "note": "(stereo partly specified)", "values": [{"measurement": "GI50", "setting": "SN12K1", "result": "< 0.00482 µM (active)"}, {"measurement": "GI50", "setting": "P388", "result": "< 0.00482 µM (active)"}, {"measurement": "GI50", "setting": "P388/ADR", "result": "< 0.00482 µM (active)"}]}, {"smiles": "COC(=O)c1c(C)c2c(C)cc3ccccn3c-2c1C(=O)OC", "values": [{"measurement": "IC50", "setting": "Genome polyprotein", "result": "> 100 µM (active)"}]}, {"smiles": "COc1ccc(C2CC(c3sc(Nc4ccc(C)cc4)nc3C)=NN2)cc1", "note": "(stereo unspecified)", "values": [{"measurement": "GI50", "setting": "SN12K1", "result": "14.9 µM (inactive)"}, {"measurement": "GI50", "setting": "P388", "result": "6.79 µM (inactive)"}, {"measurement": "GI50", "setting": "P388/ADR", "result": "4.99 µM (inactive)"}]}, {"smiles": "Nc1n[nH]c(N)c1N=Nc1ccc(F)cc1", "values": [{"measurement": "IC50", "setting": "[2]", "result": "30.8 µM (not active)"}, {"measurement": "AC50", "setting": "[3]", "result": "2.29 µM (active)"}, {"measurement": "IC50", "setting": "Leucine aminopeptidase", "result": "8.11 µM (active)"}]}, {"smiles": "NC(CN(O)N=O)C(=O)O", "note": "(stereo unspecified)", "values": [{"measurement": "GI50", "setting": "SN12K1", "result": "0.792 µM (active)"}, {"measurement": "GI50", "setting": "P388", "result": "16.5 µM (inactive)"}, {"measurement": "GI50", "setting": "P388/ADR", "result": "8.45 µM (inactive)"}]}, {"smiles": "Nc1ccc(-c2ccc(N)c(C(=O)O)c2)cc1C(=O)O", "values": [{"measurement": "AC50", "setting": "[3]", "result": "2.38 µM (active)"}]}, {"smiles": "Fc1ccc(CN2CC[C@H]3C=CCc4cccc(c43)C2)cc1", "values": [{"measurement": "IC50", "setting": "[4]", "result": "> 66 µM (inactive)"}, {"measurement": "IC50", "setting": "[5]", "result": "> 66 µM (inactive)"}]}, {"smiles": "Cc1ccc(CSC2=NCCN2C(=O)c2ccco2)cc1", "values": [{"measurement": "AC50", "setting": "[3]", "result": "2.85 µM (active)"}]}, {"smiles": "NC(=O)c1ncn2c1NC(=O)CC2", "values": [{"measurement": "GI50", "setting": "SN12K1", "result": "> 100 µM (inactive)"}, {"measurement": "GI50", "setting": "P388", "result": "> 31.6 µM (inactive)"}, {"measurement": "GI50", "setting": "P388/ADR", "result": "> 100 µM (inactive)"}]}, {"smiles": "Cc1ccc(-c2cc(C(F)(F)F)n3nc(C(=O)NCCCn4ccnc4)cc3n2)cc1C", "values": [{"measurement": "CC50", "setting": "[6]", "result": "> 40 µM (active)"}, {"measurement": "IC50", "setting": "cells", "result": "> 50 µM (active)"}]}, {"smiles": "COc1c(OC(C)=O)ccc(/C=N\\NC(=O)c2ccc(Br)cc2)c1[N+](=O)[O-]", "values": [{"measurement": "IC50", "setting": "Genome polyprotein", "result": "96.5 µM (active)"}]}, {"smiles": "Cc1cc(C)c2ccc(NN)nc2c1O", "values": [{"measurement": "CC50", "setting": "[6]", "result": "> 40 µM (active)"}, {"measurement": "IC50", "setting": "H9c2", "result": "5.06 µM (active)"}, {"measurement": "EC50", "setting": "[7]", "result": "3.27 µM (active)"}, {"measurement": "EC50", "setting": "Streptococcus", "result": "6.5 µM (active)"}, {"measurement": "CC50", "setting": "[8]", "result": "36 µM (active)"}]}, {"smiles": "CCc1nc(N2CCN(C(C)=O)CC2)c2c3c(sc2n1)CC(C(C)(C)C)CC3", "note": "(stereo unspecified)", "values": [{"measurement": "AC50", "setting": "[9]", "result": "11.3 µM (active)"}, {"measurement": "CC50", "setting": "[6]", "result": "> 40 µM (active)"}, {"measurement": "AC50", "setting": "[10]", "result": "58.6 µM (active)"}, {"measurement": "AC50", "setting": "INS1", "result": "3.36 µM (active)"}, {"measurement": "AC50", "setting": "[11]", "result": "6.76 µM (active)"}]}, {"smiles": "O=C(Nc1cccc(Cl)c1)c1cccc(N2C(=O)C3CC=CCC3C2=O)c1", "note": "(stereo unspecified)", "values": [{"measurement": "AC50", "setting": "Caspase-6", "result": "9.42 µM (active)"}]}, {"smiles": "Cc1cc(Nc2[nH]nc(N)c2C#N)ccc1F", "values": [{"measurement": "AC50", "setting": "[3]", "result": "2.22 µM (active)"}]}, {"smiles": "COc1cc(NS(C)(=O)=O)ccc1Nc1c2ccccc2nc2ccccc12", "note": "[AMSACRINE]", "values": [{"measurement": "GI50", "setting": "SN12K1", "result": "0.106 µM (active)"}, {"measurement": "AC50", "setting": "Cytochrome P450 3A4", "result": "20 µM (inconclusive)"}, {"measurement": "AC50", "setting": "Cytochrome P450 2C9", "result": "inconclusive"}, {"measurement": "GI50", "setting": "P388", "result": "0.0318 µM (active)"}, {"measurement": "GI50", "setting": "P388/ADR", "result": "0.265 µM (active)"}]}]}
